From patent US11504385B2, “Proteolysis targeting chimeric molecule, preparation method, and application” (CHINA PHARMACEUTICAL UNIVERSITY, priority 2019, dated 2022)

Experiments:
[1] = test system: ABL gene; test: RT-qPCR, expression of the ABL gene in K562 cells; assay type: cell-based
Excerpt: In order to test the degradation effect of the compound 4C on c-ABL and BCR-ABL proteins in K562 cells, the researchers performed an immunoblotting experiment. […] In order to exclude the possibility that the compound 4C affected the ABL gene to generate false positive expression, the researchers used RT-qPCR in K562 cells to study the expression of the ABL gene.
The operation method of an RT-qPCR experiment is as follows:
According to the related gene information in the NCBI database, the coding sequences were selected, and primers were designed and synthesized by GenScript Biotechnology Corporation under entrustment. The sequences are as follows:
A K562 cell resuspension solution collected in a 1.5 mL centrifuge tube was centrifuged briefly. […] After mixing uniformly, the purity and concentration of the extracted RNA sample were detected using a spectrophotometer. […]
0.2 ml thin-walled PCR tubes were taken and numbered respectively. […] Water was added to each tube to 25 μl and mixed uniformly, and the mixed solutions were placed in an SLAN fluorescent quantitative PCR instrument. After pre-denaturation at 95° C. for 5 min, the mixed solutions were placed at 95° C. for 15 s→65° C. for 35 s (fluorescence detection), for 40 cycles.

[2] = Photo-isomerization by UV-Vis absorption spectrum; assay type: physicochemical
Procedure: Then, we explored the photodynamic characteristics of the compound 4C through UV-Vis absorption spectrum. […] In addition, since the compound 4C is a T-type optical switch, the cis configuration underwent self-heating relaxation under dark conditions to transform into the trans configuration, and T½ was about 10 hours at 25° C.

[3] = test system: MCF-7 breast cancer; test: Cell viability test (CellTiter-Glo), MCF-7; assay type: cell-based; conditions: non-BCR-ABL dependent tumor cell line
Procedure: The operation method of the K562 cell viability test is as follows:
50 μL of K562, MCF-7, HCT116 and A549 cell suspensions were added to a 96-well plate and incubated for 12 hours. 10 μL of compound was added to the well and incubated for 48 hours. Operation was performed according to a CellTiter-Glo® luminescent cell viability assay kit (Promega). Nonlinear regression analysis data in GraphPad Prism 6 was used.

**Q.** Which results are given for Cc1nc(Nc2ncc(C(=O)Nc3c(C)cccc3Cl)s2)cc(N2CCN(CCCCOc3ccc(/N=N/c4ccc(C(=O)Nc5cccc6c5CN(C5CCC(=O)NC5=O)C6=O)cc4)cc3)CC2)n1 (centres unmarked) [Compound 4C, (E)-N-(2-chloro-6-methylphenyl)-2-((6-(4-(4-(4-((4-((2-(2,6-dioxopiperidin-3-yl)-1-oxoisoindolin-4-yl)carbamoyl)phenyl)diazenyl)phenoxy)butyl)piperazin-1-yl)-2-methylpyrimidin-4-yl)amino)thiazole-5-carboxamide]?
**A.** mRNA level of the ABL gene, time-effect ([1]; 500 nm, 48 hours): did not significantly decrease; mRNA level of the ABL gene, dose-effect ([1]; different concentrations, 36 hours, compared with control group): did not change significantly; transformation from trans to cis configuration (absorbency-time curve at 361 nm) ([2]; UV irradiation for 1 hour): almost completely transformed to the cis configuration; reversibility of the photosensitive switch (stability) ([2]; irradiated with ultraviolet light and white light in turn for 5 times): still relatively stable; effect on cell viability [3]: hardly affects
